These results are taken from PMC6718442, “11β-Hydroxysteroid dehydrogenases control access of 7β,27-dihydroxycholesterol to retinoid-related orphan receptor γ” (Journal of Lipid Research, 2019).

In one assay the target is T1, mouse 11β-hsd1 (Mus musculus, UniProt P50172).
T1 construct: expressed in transfected cells; host or cells: HEK-293
The assay can be described thus: Inhibition of murine 11β-hsd1-dependent oxoreduction of cortisone in HEK-293 cell lysates. The settings on record: for IC50: mouse ortholog, 200 nM cortisone, 10 min, 37°C, read-out: IC50, mouse 11β-hsd1-dependent conversion of cortisone to cortisol. The format is biochemical. The procedure: (§1) 11β-HSD1 and 11β-HSD2 enzyme activities were assessed in lysates of HEK-293 cells stably expressing the respective enzyme as reported earlier ([40]). Briefly, 11β-HSD1-dependent oxoreductase activity was determined by the incubation of lysates with 200 nM of radiolabeled cortisone, 500 μM of NADPH, and the test substance or vehicle for 10 min at 37°C. 11β-HSD2-dependent oxidation of cortisol was measured instead by the addition of 50 nM of radiolabeled cortisol and 500 μM of NAD^+. The enzymatic reaction was stopped by introducing an excess amount of unlabeled cortisone and cortisol (1:1, 2 mM unlabeled each, in methanol). Cortisone and cortisol were separated using TLC and a chloroform and methanol (9:1, v/v) mixture. The bands were detected under UV light, scraped off the plate, and metabolism of the radiolabeled substrate was then evaluated by scintillation counting and the substrate conversion determined and compared with the control sample. Data (mean ± SD) were normalized to the control (DMSO) sample and obtained from at least three independent experiments.

Assay [1] concerns the target T2, human 11β-HSD1 (Homo sapiens, UniProt P28845).
T2 construct: expressed in transfected cells
Put plainly: Inhibition of 11β-HSD1-dependent oxoreduction of cortisone in HEK-293 cell lysates. The format is biochemical. The settings on record: for IC50: human enzyme, 200 nM cortisone, read-out: IC50, 11β-HSD1-dependent conversion of cortisone to cortisol. The procedure: as §1

The target in assay [2] is T2, human 11β-HSD1. The assay can be described thus: 11β-HSD1-dependent metabolism of 7-oxygenated 27OHCs in intact HEK-293 cells expressing 11β-HSD1 and H6PDH. The format is cell-based. Particulars: for Metabolism by 11β-HSD1 in intact cells (in words): 1 μM substrate, 60 min. The procedure:
(§2) Fifty thousand stably transfected HEK-293 cells expressing either 11β-HSD2 [clone AT8 ([34])] or 11β-HSD1 and hexose-6-phosphate dehydrogenase (H6PDH) [clone HHH7 ([35])] were seeded in poly-L-lysine-coated 96-well plates and incubated for 24 h. H6PDH provides the cofactor NADPH and is required for an efficient oxoreduction reaction by 11β-HSD1 ([36]). The medium was changed to steroid- and phenol red-free DMEM (DMEM SF) for another 2 h and the cells were then treated with 1 μM of 7k27OHC in the presence or absence of 1 μM of T0504 (to inhibit 11β-HSD1) or 0.5 μM of 7β27OHC or 7α27OHC in the presence or absence of 5 μM of glycyrrhetinic acid (GA) (to inhibit 11β-HSD2). Metabolic conversion was determined after 0.5 h for 11β-HSD2 and after 1 h for 11β-HSD1.
(§3) Ice-cold acetonitrile:isopropanol (7:3, v/v) mixture containing either 100 nM deuterium-labeled 7β27OHC or corticosterone as internal standards were used to extract oxysterols from cell culture supernatants. Additionally, 1.5% (v/v) of a standard solution of the antioxidant butylated hydroxytoluene (BHT) and the peroxide reducing agent triphenylphosphine (TPP) (10 mg BHT and 25 mg TPP in 10 ml ethanol) was added ([37]). In experiments with SW-620 cells, oxysterols were extracted from cell supernatants and cells. The samples were incubated for 30 min at 4°C and 700 rotations per minute, centrifuged (16,000 g, 10 min, 4°C), and the supernatant evaporated to dryness under nitrogen to minimize oxidation from atmospheric oxygen. After reconstitution in 50 μl of methanol:ultra-pure water (1:1, v/v), the samples were again centrifuged (16,000 g, 10 min, 4°C) and the supernatants analyzed. Data (mean ± SD) were obtained from three independent experiments.
An Agilent 1290 Infinity UHPLC binary solvent delivery system including a temperature controlled autosampler and a column oven coupled to an Agilent 6490 triple quadrupole mass spectrometer with a jet stream electrospray ionization interface (AJS-ESI) (Agilent Technologies) was used to analyze oxysterols. A reversed-phase column (ACQUITY UPLC BEH C18, 1.7 μm, 2.1 × 150 mm; Waters, Wexford, Ireland) heated to 65 ± 0.8°C was applied for analyte separation. The flow-rate was 0.5 ml with solvent A [water/acetonitrile/formic acid (95/5/0.1, v/v/v)] and solvent B [water/acetonitrile/formic acid (5/95/0.1, v/v/v)]. The eluent gradient was set as follows: 0–4.5 min 45–97% B, 4.5–7 min 80% B (washout), and 7–9 min 45% B (column re-equilibration). Methanol/water (75/25, v/v) was used as needle and needle-seat flushing solvent for 10 s after sample aspiration. The samples were stored in the autosampler at 4°C until analysis. […]

The target in assay [3] is T3, 11β-HSD2 (Homo sapiens, UniProt P80365).
T3 construct: expressed in transfected cells
T3 sequence (P80365 1-405): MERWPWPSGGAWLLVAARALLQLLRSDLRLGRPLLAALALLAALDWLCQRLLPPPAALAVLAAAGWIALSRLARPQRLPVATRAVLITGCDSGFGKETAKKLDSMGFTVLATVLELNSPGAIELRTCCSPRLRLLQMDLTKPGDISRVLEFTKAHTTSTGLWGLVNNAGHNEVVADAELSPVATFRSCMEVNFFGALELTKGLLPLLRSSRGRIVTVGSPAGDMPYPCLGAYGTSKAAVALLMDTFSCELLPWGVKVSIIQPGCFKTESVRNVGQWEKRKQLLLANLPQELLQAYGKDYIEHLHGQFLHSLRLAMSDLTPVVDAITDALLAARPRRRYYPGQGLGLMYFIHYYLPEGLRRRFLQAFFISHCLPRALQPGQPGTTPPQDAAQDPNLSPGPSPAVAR
The assay can be described thus: Inhibition of 11β-HSD2-dependent oxidation of cortisol in HEK-293 cell lysates. The format is biochemical. The settings on record: for IC50: human enzyme, 50 nM cortisol, 10 min, 37°C, read-out: IC50, 11β-HSD2-dependent conversion of cortisol to cortisone. The protocol:
as §1

Assay [4] concerns the target T3, 11β-HSD2. Put plainly: 11β-HSD2-dependent metabolism of 7-oxygenated 27OHCs in intact HEK-293 cells expressing 11β-HSD2. The format is cell-based. Particulars: for Metabolism by 11β-HSD2 in intact cells (in words): 500 nM substrate, 30 min. The protocol:
as §2, §3
An Agilent 1290 Infinity UHPLC binary solvent delivery system including a temperature controlled autosampler and a column oven coupled to an Agilent 6490 triple quadrupole mass spectrometer with a jet stream electrospray ionization interface (AJS-ESI) (Agilent Technologies) was used to analyze oxysterols. […]

Broadly, the IC50 is the concentration that gives 50% inhibition.

“And” between values parts separate entries of the source, which are not always exact repeats. Equal entries are not always repeated. Where two headings read alike, the source gives them in different places.

T1 sequence (P50172 whole entry): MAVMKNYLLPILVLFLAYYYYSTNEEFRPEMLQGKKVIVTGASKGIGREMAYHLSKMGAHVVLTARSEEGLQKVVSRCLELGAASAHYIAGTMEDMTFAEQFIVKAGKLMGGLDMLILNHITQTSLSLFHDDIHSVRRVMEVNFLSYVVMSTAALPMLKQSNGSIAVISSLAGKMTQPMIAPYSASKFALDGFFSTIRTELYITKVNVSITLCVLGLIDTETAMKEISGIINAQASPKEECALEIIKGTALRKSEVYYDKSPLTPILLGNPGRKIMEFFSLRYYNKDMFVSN
T2 sequence (P28845 whole entry): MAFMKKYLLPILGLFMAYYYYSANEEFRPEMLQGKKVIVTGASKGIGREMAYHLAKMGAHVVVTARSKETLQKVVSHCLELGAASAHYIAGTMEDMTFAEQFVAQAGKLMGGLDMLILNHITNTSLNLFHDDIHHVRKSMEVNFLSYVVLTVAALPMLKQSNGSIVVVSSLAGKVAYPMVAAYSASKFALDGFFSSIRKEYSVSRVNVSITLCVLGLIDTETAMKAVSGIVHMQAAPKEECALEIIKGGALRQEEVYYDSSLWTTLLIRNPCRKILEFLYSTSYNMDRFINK

Take `CC(CO)CCC[C@@H](C)[C@H]1CC[C@H]2[C@@H]3C(=O)C=C4C[C@@H](O)CC[C@]4(C)[C@H]3CC[C@]12C` (stereo partly shown) [7k27OHC, 7-keto,27-hydroxycholesterol]: the IC50 on mouse 11β-hsd1 is 36 ± 2 nM; on human 11β-HSD1 [1] (10 min, 37°C) it was 357 ± 38 nM; at 11β-HSD2 [3], 15 ± 1 nM. The “Metabolism by 11β-HSD1 in intact cells (in words)” value (“Metabolism by 11β-HSD1” below) on human 11β-HSD1 [2] is reported as “stereo-specifically converted to 7β27OHC”. Besides, the Vapp cell intact on human 11β-HSD1 [2] (intact HEK-293 cells, substrate concentration 1 μM) is 0.52 ± 0.10 nmol·h^−1·mg total protein^−1 and 0.52 ± 0.10^a nmol·h^−1·mg total protein^−1.
`C[C@@H](CO)CCC[C@@H](C)[C@H]1CC[C@H]2[C@@H]3[C@H](O)C=C4C[C@@H](O)CC[C@]4(C)[C@H]3CC[C@]12C` [7α27OHC]: on mouse 11β-hsd1 (1 μM test substance, data not shown), the “Rest enzyme activity of mouse 11β-hsd1” value is listed as about 30%. Besides, the “Inhibition of human 11β-HSD1 enzyme activity (in words)” value at human 11β-HSD1 [1] (concentrations up to 10 μM, data not shown) is “did not inhibit the enzyme activity”. Moreover, the “Metabolism by 11β-HSD1” value at human 11β-HSD1 [2] was “neither 7α27OHC nor 7β27OHC was oxidized”. Besides, the “Inhibition of human 11β-HSD2 (in words)” value at 11β-HSD2 [3] (not shown) is listed as “did not inhibit”. Also, on 11β-HSD2 [4], the “Metabolism by 11β-HSD2 in intact cells (in words)” value is on record as “lack of 7α27OHC metabolism”.
As for `CC(CO)CCC[C@@H](C)[C@H]1CC[C@H]2[C@@H]3[C@@H](O)C=C4C[C@@H](O)CC[C@]4(C)[C@H]3CC[C@]12C` (stereo partly drawn) [7β27OHC, 7β,27-dihydroxycholesterol], the IC50 is 66 ± 11 nM at mouse 11β-hsd1, at least 3000 nM at human 11β-HSD1 [1] and 11 ± 2 nM on 11β-HSD2 [3]. Also, on human 11β-HSD1 [2], the “Metabolism by 11β-HSD1” value was “neither 7α27OHC nor 7β27OHC was oxidized”. The “Metabolism by 11β-HSD2 in intact cells (in words)” value on 11β-HSD2 [4] is recorded as “exclusive oxidation of 7β27OHC to 7k27OHC”. Also, the Vapp cell intact on 11β-HSD2 [4] (intact HEK-293 cells, substrate concentration 500 nM) was 0.6 ± 0.1 nmol·h^−1·mg total protein^−1 and 0.6 ± 0.1^b nmol·h^−1·mg total protein^−1.
